According to patent US10710978B2, “STK4 inhibitors for treatment of hematologic malignancies” (Dana-Farber Cancer Institute, Inc., priority 2015, dated 2020):
Several values for one entry are separate records, joined by “and”; a condition that tells them apart may be missing. Equal values may be shown once. Read-outs that look alike come from different tables or passages of the source.

Assays:
Assay in all cases: KiNativ assay
Type in all cases: binding
Conditions in all cases: H929 live cell
[1] = biological target: PAN3 (Homo sapiens (Human), UniProt Q58A45)
Procedure: (§1) Biochemical IC50s of the compounds of the present disclosure against various kinases were measured in a KiNativ assay. Compounds were screened in duplicate at 10 μM in H929 live cell. IC50 was measured via Mass spectroscopy (MS).

[2] = biological target: PI4KB (Homo sapiens (Human), UniProt Q9UBF8)
Procedure: as §1

[3] = system: CaMK2a, CaMK2b, CaMK2d, CaMK2g
Procedure: as §1

[4] = biological target: MAP3K2 (Homo sapiens (Human), UniProt Q9Y2U5)
Procedure: as §1

[5] = biological target: TLK1 (Homo sapiens (Human), UniProt Q9UKI8)
Procedure: as §1

[6] = system: MARK1, MARK2
Procedure: as §1

[7] = biological target: PEK (Homo sapiens (Human), UniProt Q9NZJ5)
Procedure: as §1

[8] = biological target: ZAK (Homo sapiens (Human), UniProt Q9NYL2)
Procedure: as §1

[9] = biological target: Erk1 (Homo sapiens (Human), UniProt P27361)
Procedure: as §1

[10] = biological target: FER (Homo sapiens (Human), UniProt P16591)
Procedure: as §1

[11] = biological target: MASTL (Homo sapiens (Human), UniProt Q96GX5)
Procedure: as §1

[12] = biological target: NDR1 (Homo sapiens (Human), UniProt Q15208)
Procedure: as §1

[13] = biological target: NEK3 (Homo sapiens (Human), UniProt P51956)
Procedure: as §1

[14] = biological target: PHKg2 (Homo sapiens (Human), UniProt P15735)
Procedure: as §1

[15] = biological target: eEF2K (Homo sapiens (Human), UniProt O00418)
Procedure: as §1

[16] = biological target: IRAK1 (Homo sapiens (Human), UniProt P51617)
Procedure: as §1

[17] = biological target: BRAF (Homo sapiens (Human), UniProt P15056)
Procedure: as §1

[18] = biological target: MAP2K1 (Homo sapiens (Human), UniProt Q02750)
Procedure: as §1

[19] = biological target: MAP2K6 (Homo sapiens (Human), UniProt P52564)
Procedure: as §1

[20] = biological target: PIP4K2A (Homo sapiens (Human), UniProt P48426)
Procedure: as §1

[21] = system: PITSLRE
Procedure: as §1

[22] = biological target: SRPK2 (Homo sapiens (Human), UniProt P78362)
Procedure: as §1

[23] = system: MAP2K1, MAP2K2
Procedure: as §1

[24] = system: MST4
Procedure: as §1

[25] = biological target: RSKL1 (Homo sapiens (Human), UniProt Q96S38)
Procedure: as §1

[26] = biological target: PKD3 (Homo sapiens (Human), UniProt O94806)
Procedure: as §1

[27] = biological target: MARK4 (Homo sapiens (Human), UniProt Q96L34)
Procedure: as §1

[28] = biological target: HPK1 (Homo sapiens (Human), UniProt Q92918)
Procedure: as §1

[29] = biological target: MARK2 (Homo sapiens (Human), UniProt Q7KZI7)
Procedure: as §1

[30] = system: CDK11, CDK8
Procedure: as §1

[31] = system: IKKe, TBK1
Procedure: as §1

[32] = biological target: NuaK2 (Homo sapiens (Human), UniProt Q9H093)
Procedure: as §1

[33] = system: AurA, AurB, AurC
Procedure: as §1

[34] = biological target: CHK1 (Homo sapiens (Human), UniProt O14757)
Procedure: as §1

Chain of eEF2K (O00418 whole entry): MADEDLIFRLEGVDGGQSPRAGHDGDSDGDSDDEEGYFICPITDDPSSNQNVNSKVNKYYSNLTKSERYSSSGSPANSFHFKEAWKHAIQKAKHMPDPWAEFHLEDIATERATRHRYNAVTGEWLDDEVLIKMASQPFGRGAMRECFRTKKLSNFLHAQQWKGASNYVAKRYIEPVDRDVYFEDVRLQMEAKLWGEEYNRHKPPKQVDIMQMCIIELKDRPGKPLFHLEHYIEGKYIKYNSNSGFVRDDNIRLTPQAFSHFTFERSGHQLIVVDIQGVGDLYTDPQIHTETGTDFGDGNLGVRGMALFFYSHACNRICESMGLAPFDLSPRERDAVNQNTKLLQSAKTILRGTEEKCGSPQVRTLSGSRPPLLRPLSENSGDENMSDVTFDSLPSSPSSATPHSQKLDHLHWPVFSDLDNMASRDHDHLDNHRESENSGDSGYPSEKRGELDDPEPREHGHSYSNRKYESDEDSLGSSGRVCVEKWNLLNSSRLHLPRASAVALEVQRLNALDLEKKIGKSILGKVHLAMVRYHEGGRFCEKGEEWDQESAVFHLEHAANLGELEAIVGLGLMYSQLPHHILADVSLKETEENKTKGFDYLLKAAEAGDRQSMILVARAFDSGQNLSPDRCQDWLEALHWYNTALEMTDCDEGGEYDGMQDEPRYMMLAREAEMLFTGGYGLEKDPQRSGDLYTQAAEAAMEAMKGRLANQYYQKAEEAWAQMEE
Chain of NEK3 (P51956 whole entry): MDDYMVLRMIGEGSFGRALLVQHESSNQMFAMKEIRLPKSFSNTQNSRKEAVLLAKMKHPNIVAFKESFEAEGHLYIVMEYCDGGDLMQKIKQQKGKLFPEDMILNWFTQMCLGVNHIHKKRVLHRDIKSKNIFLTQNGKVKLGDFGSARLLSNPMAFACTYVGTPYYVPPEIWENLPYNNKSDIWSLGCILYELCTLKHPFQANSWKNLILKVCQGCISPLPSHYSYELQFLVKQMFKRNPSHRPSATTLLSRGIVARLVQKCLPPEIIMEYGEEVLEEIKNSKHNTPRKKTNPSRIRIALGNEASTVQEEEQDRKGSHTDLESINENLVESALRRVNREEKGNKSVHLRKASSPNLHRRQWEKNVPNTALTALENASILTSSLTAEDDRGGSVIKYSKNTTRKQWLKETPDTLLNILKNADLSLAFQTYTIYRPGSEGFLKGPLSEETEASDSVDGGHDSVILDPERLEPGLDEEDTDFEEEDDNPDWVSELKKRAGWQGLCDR
Chain of FER (P16591 whole entry): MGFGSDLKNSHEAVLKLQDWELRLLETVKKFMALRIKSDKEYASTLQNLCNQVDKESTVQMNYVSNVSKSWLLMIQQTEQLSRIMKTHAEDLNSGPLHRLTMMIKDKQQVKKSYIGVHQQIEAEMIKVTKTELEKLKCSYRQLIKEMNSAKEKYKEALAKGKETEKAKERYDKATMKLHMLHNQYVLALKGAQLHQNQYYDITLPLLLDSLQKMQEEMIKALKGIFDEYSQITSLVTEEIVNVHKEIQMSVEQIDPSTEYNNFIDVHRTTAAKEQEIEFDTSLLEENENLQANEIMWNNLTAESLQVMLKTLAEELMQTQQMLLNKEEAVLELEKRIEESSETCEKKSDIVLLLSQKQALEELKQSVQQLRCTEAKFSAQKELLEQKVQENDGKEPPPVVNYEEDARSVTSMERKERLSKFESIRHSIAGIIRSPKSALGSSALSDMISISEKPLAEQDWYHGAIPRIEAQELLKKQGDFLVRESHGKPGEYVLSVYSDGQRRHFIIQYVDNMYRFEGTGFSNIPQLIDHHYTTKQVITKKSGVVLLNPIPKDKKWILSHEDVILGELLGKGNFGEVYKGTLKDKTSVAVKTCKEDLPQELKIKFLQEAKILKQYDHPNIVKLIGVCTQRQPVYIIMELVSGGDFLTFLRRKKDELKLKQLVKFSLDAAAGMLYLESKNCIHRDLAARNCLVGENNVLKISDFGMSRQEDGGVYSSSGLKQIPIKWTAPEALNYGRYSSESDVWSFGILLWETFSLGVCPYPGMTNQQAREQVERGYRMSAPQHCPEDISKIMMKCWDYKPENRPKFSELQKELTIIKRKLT
Chain of NuaK2 (Q9H093 whole entry): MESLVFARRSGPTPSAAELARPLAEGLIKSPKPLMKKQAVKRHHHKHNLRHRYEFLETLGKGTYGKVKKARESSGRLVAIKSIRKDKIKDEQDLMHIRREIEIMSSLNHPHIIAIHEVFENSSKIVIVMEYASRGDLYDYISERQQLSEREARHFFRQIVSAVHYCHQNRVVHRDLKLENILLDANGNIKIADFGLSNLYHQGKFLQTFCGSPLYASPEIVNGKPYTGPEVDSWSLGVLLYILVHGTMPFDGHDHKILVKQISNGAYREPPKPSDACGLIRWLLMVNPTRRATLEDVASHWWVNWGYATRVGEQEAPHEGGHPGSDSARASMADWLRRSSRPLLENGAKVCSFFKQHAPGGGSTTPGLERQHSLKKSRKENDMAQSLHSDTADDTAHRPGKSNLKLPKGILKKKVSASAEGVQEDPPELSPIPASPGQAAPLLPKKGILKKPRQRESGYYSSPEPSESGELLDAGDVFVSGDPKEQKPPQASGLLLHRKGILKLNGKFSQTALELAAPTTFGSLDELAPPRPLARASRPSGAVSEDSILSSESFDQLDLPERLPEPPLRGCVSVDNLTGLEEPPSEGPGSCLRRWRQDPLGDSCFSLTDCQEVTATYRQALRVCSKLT
Chain of ZAK (Q9NYL2 whole entry): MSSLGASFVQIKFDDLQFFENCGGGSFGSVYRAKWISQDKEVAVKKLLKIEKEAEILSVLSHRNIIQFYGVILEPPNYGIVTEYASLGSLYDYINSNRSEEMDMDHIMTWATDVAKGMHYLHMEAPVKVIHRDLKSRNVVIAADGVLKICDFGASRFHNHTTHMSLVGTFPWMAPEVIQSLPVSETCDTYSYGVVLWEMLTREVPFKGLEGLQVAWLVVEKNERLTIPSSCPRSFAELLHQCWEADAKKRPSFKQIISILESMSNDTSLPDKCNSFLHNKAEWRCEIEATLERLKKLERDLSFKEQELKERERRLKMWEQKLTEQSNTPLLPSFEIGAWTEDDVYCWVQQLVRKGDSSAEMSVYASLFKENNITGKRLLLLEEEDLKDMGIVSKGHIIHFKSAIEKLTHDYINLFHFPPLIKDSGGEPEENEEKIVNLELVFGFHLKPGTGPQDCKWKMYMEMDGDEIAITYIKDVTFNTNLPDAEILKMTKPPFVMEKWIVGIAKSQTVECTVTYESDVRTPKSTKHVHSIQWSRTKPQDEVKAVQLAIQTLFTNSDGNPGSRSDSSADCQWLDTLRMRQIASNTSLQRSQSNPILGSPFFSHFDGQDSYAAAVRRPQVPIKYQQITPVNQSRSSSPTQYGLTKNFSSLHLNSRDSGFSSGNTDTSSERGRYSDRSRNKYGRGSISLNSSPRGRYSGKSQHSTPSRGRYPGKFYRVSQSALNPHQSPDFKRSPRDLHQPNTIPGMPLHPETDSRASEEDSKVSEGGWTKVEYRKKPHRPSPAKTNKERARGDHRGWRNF
Chain of Erk1 (P27361 whole entry): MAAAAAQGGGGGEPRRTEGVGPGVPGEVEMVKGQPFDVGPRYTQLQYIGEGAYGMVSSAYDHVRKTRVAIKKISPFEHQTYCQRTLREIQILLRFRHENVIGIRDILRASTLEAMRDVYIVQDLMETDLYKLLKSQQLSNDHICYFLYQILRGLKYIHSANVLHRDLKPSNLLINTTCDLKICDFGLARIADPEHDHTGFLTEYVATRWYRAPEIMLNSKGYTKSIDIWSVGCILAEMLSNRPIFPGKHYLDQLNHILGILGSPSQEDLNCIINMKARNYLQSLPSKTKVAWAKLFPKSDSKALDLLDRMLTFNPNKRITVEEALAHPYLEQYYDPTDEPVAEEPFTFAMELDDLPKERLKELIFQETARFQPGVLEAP
Chain of PKD3 (O94806 whole entry): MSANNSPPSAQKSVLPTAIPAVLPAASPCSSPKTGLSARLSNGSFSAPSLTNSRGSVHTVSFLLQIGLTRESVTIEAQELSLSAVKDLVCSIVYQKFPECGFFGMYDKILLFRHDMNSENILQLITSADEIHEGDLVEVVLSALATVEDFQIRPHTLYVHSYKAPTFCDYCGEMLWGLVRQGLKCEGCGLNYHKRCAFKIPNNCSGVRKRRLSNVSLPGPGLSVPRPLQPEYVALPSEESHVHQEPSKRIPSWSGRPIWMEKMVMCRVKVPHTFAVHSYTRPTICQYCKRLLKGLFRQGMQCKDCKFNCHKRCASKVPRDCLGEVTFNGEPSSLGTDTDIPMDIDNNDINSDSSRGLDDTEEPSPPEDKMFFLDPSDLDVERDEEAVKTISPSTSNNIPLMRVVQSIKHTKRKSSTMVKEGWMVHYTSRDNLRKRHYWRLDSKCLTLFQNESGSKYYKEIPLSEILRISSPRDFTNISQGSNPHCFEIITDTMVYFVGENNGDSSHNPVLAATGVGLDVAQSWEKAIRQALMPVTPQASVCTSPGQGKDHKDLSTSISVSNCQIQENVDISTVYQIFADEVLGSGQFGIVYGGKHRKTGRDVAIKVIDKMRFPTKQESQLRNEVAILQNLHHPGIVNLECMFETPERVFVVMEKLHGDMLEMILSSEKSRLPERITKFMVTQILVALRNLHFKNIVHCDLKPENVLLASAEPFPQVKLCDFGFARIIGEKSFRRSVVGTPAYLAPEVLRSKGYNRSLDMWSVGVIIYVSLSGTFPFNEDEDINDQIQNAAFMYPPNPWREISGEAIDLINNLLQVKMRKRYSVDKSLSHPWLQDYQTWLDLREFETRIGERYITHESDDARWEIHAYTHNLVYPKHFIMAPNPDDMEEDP

SMILES: CN(C1CC1)S(=O)(=O)c1ccc(-c2cnc(N)c(-c3ccc4c(c3)CCNC4=O)c2)c(F)c1 [Compound I-28, 4-(6-amino-5-(1-oxo-1,2,3,4-tetrahydroisoquinolin-6-yl)pyridin-3-yl)-N-cyclopropyl-3-fluoro-N-methylbenzenesulfonamide]
- inhibition at 10 µM ([1]; read-out: % inhibition (range)): 0%
- inhibition at 10 µM ([1]; read-out: inhibition (10 μM)): -45.1%
- inhibition at 10 µM ([2]; read-out: % inhibition (range)): 0%
- inhibition at 10 µM ([2]; read-out: inhibition (10 μM)): 16.7%
- % inhibition (range) ([3]; 10 μM): 0.0%
- inhibition (10 μM) [3]: 1.4%
- inhibition at 10 µM ([4]; read-out: % inhibition (range)): 0%
- inhibition at 10 µM ([4]; read-out: inhibition (10 μM)): 7%
- inhibition at 10 µM ([5]; read-out: % inhibition (range)): 0%
- inhibition at 10 µM ([5]; read-out: inhibition (10 μM)): 1.8%
- % inhibition (range) ([6]; 10 μM): 0.0%
- inhibition (10 μM) [6]: −1.3%
- inhibition at 10 µM ([7]; read-out: % inhibition (range)): 0%
- inhibition at 10 µM ([7]; read-out: inhibition (10 μM)): -15.7%
- inhibition at 10 µM ([8]; read-out: % inhibition (range)): 0%
- inhibition at 10 µM ([8]; read-out: inhibition (10 μM)): 18.2%
- inhibition at 10 µM ([9]; read-out: % inhibition (range)): 0%
- inhibition at 10 µM ([9]; read-out: inhibition (10 μM)): 11%
- inhibition at 10 µM ([10]; read-out: % inhibition (range)): 0%
- inhibition at 10 µM ([10]; read-out: inhibition (10 μM)): -3.9%
- inhibition at 10 µM ([11]; read-out: % inhibition (range)): 0%
- inhibition at 10 µM ([11]; read-out: inhibition (10 μM)): 10.2%
- inhibition at 10 µM ([12]; read-out: % inhibition (range)): 0%
- inhibition at 10 µM ([12]; read-out: inhibition (10 μM)): 24.6%
- inhibition at 10 µM ([13]; read-out: % inhibition (range)): 0%
- inhibition at 10 µM ([13]; read-out: inhibition (10 μM)): -27.2%
- inhibition at 10 µM ([14]; read-out: % inhibition (range)): 0%
- inhibition at 10 µM ([14]; read-out: inhibition (10 μM)): 17.3%
- inhibition at 10 µM ([15]; read-out: % inhibition (range)): 0%
- inhibition at 10 µM ([15]; read-out: inhibition (10 μM)): -15.1%
- inhibition at 10 µM ([16]; read-out: % inhibition (range)): 50 to 75%
- inhibition at 10 µM ([16]; read-out: inhibition (10 μM)): 67.8%
- inhibition at 10 µM ([17]; read-out: % inhibition (range)): 0%
- inhibition at 10 µM ([17]; read-out: inhibition (10 μM)): -4.6%
- inhibition at 10 µM ([18]; read-out: % inhibition (range)): 0%
- inhibition at 10 µM ([18]; read-out: inhibition (10 μM)): -5.5%
- inhibition at 10 µM ([19]; read-out: % inhibition (range)): 0%
- inhibition at 10 µM ([19]; read-out: inhibition (10 μM)): 27.6%
- inhibition at 10 µM ([20]; read-out: % inhibition (range)): 0%
- inhibition at 10 µM ([20]; read-out: inhibition (10 μM)): 3.2%
- % inhibition (range) ([21]; 10 μM): 0.0%
- inhibition (10 μM) [21]: −6.3%
- inhibition at 10 µM ([22]; read-out: % inhibition (range)): 0%
- inhibition at 10 µM ([22]; read-out: inhibition (10 μM)): 8.5%
- % inhibition (range) ([23]; 10 μM): 0.0%
- inhibition (10 μM) [23]: 0.5% and −0.9%
- % inhibition (range) ([24]; 10 μM): 50-75%
- inhibition (10 μM) [24]: 63.9%
- inhibition at 10 µM ([25]; read-out: % inhibition (range)): 0%
- inhibition at 10 µM ([25]; read-out: inhibition (10 μM)): -26.1%
- inhibition at 10 µM ([26]; read-out: % inhibition (range)): 35 to 50%
- inhibition at 10 µM ([26]; read-out: inhibition (10 μM)): 36.6%
- inhibition at 10 µM ([27]; read-out: % inhibition (range)): 0%
- inhibition at 10 µM ([27]; read-out: inhibition (10 μM)): 23.1%
- inhibition at 10 µM ([28]; read-out: % inhibition (range)): > 90%
- inhibition at 10 µM ([28]; read-out: inhibition (10 μM)): 90.8%
- inhibition at 10 µM ([29]; read-out: % inhibition (range)): 0%
- inhibition at 10 µM ([29]; read-out: inhibition (10 μM)): 4.6%
- % inhibition (range) ([30]; 10 μM): 0.0%
- inhibition (10 μM) [30]: 4.9%
- % inhibition (range) ([31]; 10 μM): 0.0%
- inhibition (10 μM) [31]: −14.8%
- inhibition at 10 µM ([32]; read-out: % inhibition (range)): 0%
- inhibition at 10 µM ([32]; read-out: inhibition (10 μM)): 11.2%
- % inhibition (range) ([33]; 10 μM): 0.0%
- inhibition (10 μM) [33]: 21.4%
- inhibition at 10 µM ([34]; read-out: % inhibition (range)): 0%
- inhibition at 10 µM ([34]; read-out: inhibition (10 μM)): 27.5%
